What was measured:
[1] = system: Echinochloa crus-galli; experiment: Herbicidal effect test in submerged condition by treatment during weed-growth stage (1); assay type: in vivo; details: 0.64 g/a, treated at 1st to 2nd leaf stage, 3 weeks after treatment
Method: (§1) Herbicidal Effect Test in Submerged Condition by Treatment During Weed-Growth Stage (1) After alluvial soil was placed in a styrol cup of 1/30000 are, water was poured therein and mixed, and adjusted to a submerged condition of water depth 4 cm. After seeds of Echinochloa crus-galli, Scirpus juncoides and Monochoria vaginalis were sown in the cup, the plants were grown by putting the cup in a green house at 25 to 30° C. When Echinochloa crus-galli, Scirpus juncoides and Monochoria vaginalis reached 1st to 2nd leaf stage, the wettable powder of the present invention prepared according to Formulation Example 1 was diluted with water so as to give a predetermined formulation amount, and the surface of the water was treated with the diluted wettable powder. The herbicidal effect for each plant was investigated 3 weeks after treatment with the herbicide according to the criteria indicated in Test Example 1.

[2] = system: Monochoria vaginalis; experiment: as above; assay type: in vivo; details: 0.64 g/a, treated at 1st to 2nd leaf stage, 3 weeks after treatment
Method: as §1

[3] = system: Scirpus juncoides; experiment: as above; assay type: in vivo; details: 0.64 g/a, treated at 1st to 2nd leaf stage, 3 weeks after treatment
Method: as §1

[4] = system: Chenopodium album; experiment: Herbicidal effect test by soil treatment; assay type: in vivo; details: 1.6 g/a, 3 weeks after treatment
Description: (§2) Herbicidal Effect Test by Soil Treatment
(§3) Sterilized diluvial soil was placed in a plastic box having a size of length 21 cm, width 13 cm and depth 7 cm, seeds Echinochloa crus-galli, Digitaria adscendes, Setaria viridis, Avena fatua, Black-grass, Abutilon avicennae, Ambrosia elatior, Amaranthus retroflexus, Chenopodium album, Polygonum blumei, Stellaria media, Zea mays (corn), Glycine max (soybean), Oryza sativa (rice), Triticum aestivum (wheat) and Beta vulgaris (beat) were sown interspatially, covered with about 1.5 cm of soil, and then the wettable powder of the present invention prepared according to Formulation Example 1 was diluted with water so as to give a predetermined formulation amount, and the surface of the soil was uniformly treated with the diluted wettable powder by use of a small-sized spray. The herbicidal effect for each plant was investigated 3 weeks after treatment with the herbicide according to the criteria indicated in Test Example 1.

[5] = system: Stellaria media; experiment: Herbicidal effect test by soil treatment; assay type: in vivo; details: 1.6 g/a, 3 weeks after treatment
Description: as §2, §3

[6] = system: Echinochloa crus-galli; experiment: Herbicidal effect test by soil treatment; assay type: in vivo; details: 1.6 g/a, 3 weeks after treatment
Description: as §2, §3

[7] = system: Polygonum blumei; experiment: Herbicidal effect test by soil treatment; assay type: in vivo; details: 1.6 g/a, 3 weeks after treatment
Description: as §2, §3

[8] = system: soybean (Glycine max); experiment: Herbicidal effect test by soil treatment; assay type: in vivo; details: 1.6 g/a, 3 weeks after treatment
Description: as §2, §3

[9] = system: Digitaria adscendes; experiment: Herbicidal effect test by soil treatment; assay type: in vivo; details: 1.6 g/a, 3 weeks after treatment
Description: as §2, §3

[10] = system: Ambrosia elatior; experiment: Herbicidal effect test by soil treatment; assay type: in vivo; details: 1.6 g/a, 3 weeks after treatment
Description: as §2, §3

[11] = system: Beta vulgaris (beet); experiment: Herbicidal effect test by soil treatment; assay type: in vivo; details: 1.6 g/a, 3 weeks after treatment
Description: as §2, §3

[12] = system: corn (Zea mays); experiment: Herbicidal effect test by soil treatment; assay type: in vivo; details: 1.6 g/a, 3 weeks after treatment
Description: as §2, §3

[13] = system: Setaria viridis; experiment: Herbicidal effect test by soil treatment; assay type: in vivo; details: 1.6 g/a, 3 weeks after treatment
Description: as §2, §3

[14] = system: Abutilon avicennae; experiment: Herbicidal effect test by soil treatment; assay type: in vivo; details: 1.6 g/a, 3 weeks after treatment
Description: as §2, §3

[15] = system: Amaranthus retroflexus; experiment: Herbicidal effect test by soil treatment; assay type: in vivo; details: 1.6 g/a, 3 weeks after treatment
Description: as §2, §3

[16] = system: Avena fatua; experiment: Herbicidal effect test by foliage treatment; assay type: in vivo; details: 1.6 g/a; foliage treatment after growth of 14 days; 3 weeks after treatment
Description: (§4) Herbicidal Effect Test by Foliage Treatment
(§5) Sterilized diluvial soil was placed in a plastic box having a size of length 21 cm, width 13 cm and depth 7 cm, seeds of Echinochloa crus-galli, Digitaria adscendes, Setaria viridis, Avena fatua, Black-grass, Abutilon avicennae, Ambrosia elatior, Amaranthus retroflexus, Chenopodium album, Polygonum blumei, Stellaria media, Zea mays, Glycine max, Oryza sativa, Triticum aestivum and Beta vulgaris were sown interspatially, covered with about 1.5 cm of soil, and then the plants were grown by putting the box in a green house at 25 to 30° C. After growth of 14 days, the wettable powder of the present invention prepared according to Formulation Example 1 was diluted with water so as to give a predetermined formulation amount, and the foliage part was uniformly treated with the diluted wettable powder by use of a small-sized spray. The herbicidal effect for each plant was investigated 3 weeks after treatment with the herbicide according to the criteria indicated in Test Example 1.

[17] = system: Chenopodium album; experiment: Herbicidal effect test by foliage treatment; assay type: in vivo; details: 1.6 g/a; foliage treatment after growth of 14 days; 3 weeks after treatment
Description: as §4, §5

[18] = system: Triticum aestivum (wheat); experiment: Herbicidal effect test by foliage treatment; assay type: in vivo; details: 1.6 g/a; foliage treatment after growth of 14 days; 3 weeks after treatment
Description: as §4, §5

[19] = system: Stellaria media; experiment: Herbicidal effect test by foliage treatment; assay type: in vivo; details: 1.6 g/a; foliage treatment after growth of 14 days; 3 weeks after treatment
Description: as §4, §5

[20] = system: Echinochloa crus-galli; experiment: Herbicidal effect test by foliage treatment; assay type: in vivo; details: 1.6 g/a; foliage treatment after growth of 14 days; 3 weeks after treatment
Description: as §4, §5

[21] = system: Polygonum blumei; experiment: Herbicidal effect test by foliage treatment; assay type: in vivo; details: 1.6 g/a; foliage treatment after growth of 14 days; 3 weeks after treatment
Description: as §4, §5

[22] = system: soybean (Glycine max); experiment: Herbicidal effect test by foliage treatment; assay type: in vivo; details: 1.6 g/a; foliage treatment after growth of 14 days; 3 weeks after treatment
Description: as §4, §5

[23] = system: Digitaria adscendes; experiment: Herbicidal effect test by foliage treatment; assay type: in vivo; details: 1.6 g/a; foliage treatment after growth of 14 days; 3 weeks after treatment
Description: as §4, §5

[24] = system: Ambrosia elatior; experiment: Herbicidal effect test by foliage treatment; assay type: in vivo; details: 1.6 g/a; foliage treatment after growth of 14 days; 3 weeks after treatment
Description: as §4, §5

[25] = system: Beta vulgaris (beet); experiment: Herbicidal effect test by foliage treatment; assay type: in vivo; details: 1.6 g/a; foliage treatment after growth of 14 days; 3 weeks after treatment
Description: as §4, §5

[26] = system: corn (Zea mays); experiment: Herbicidal effect test by foliage treatment; assay type: in vivo; details: 1.6 g/a; foliage treatment after growth of 14 days; 3 weeks after treatment
Description: as §4, §5

[27] = system: Setaria viridis; experiment: Herbicidal effect test by foliage treatment; assay type: in vivo; details: 1.6 g/a; foliage treatment after growth of 14 days; 3 weeks after treatment
Description: as §4, §5

[28] = system: Black-grass; experiment: Herbicidal effect test by foliage treatment; assay type: in vivo; details: 1.6 g/a; foliage treatment after growth of 14 days; 3 weeks after treatment
Description: as §4, §5

[29] = system: Abutilon avicennae; experiment: Herbicidal effect test by foliage treatment; assay type: in vivo; details: 1.6 g/a; foliage treatment after growth of 14 days; 3 weeks after treatment
Description: as §4, §5

[30] = system: Amaranthus retroflexus; experiment: Herbicidal effect test by foliage treatment; assay type: in vivo; details: 1.6 g/a; foliage treatment after growth of 14 days; 3 weeks after treatment
Description: as §4, §5

[31] = system: Echinochloa crus-galli; experiment: Herbicidal effect test in submerged condition by treatment before weed-generation (1); assay type: in vivo; details: 0.64 g/a, water surface treated on day of sowing, 3 weeks after treatment
Description: (§6) Herbicidal Effect Test in Submerged Condition by Treatment Before Weed-Generation (1)
(§7) After alluvial soil was placed in a styrol cup of 1/30000 are, water was poured therein and mixed, and adjusted to a submerged condition of water depth 4 cm. After seeds of Echinochloa crus-galli, Scirpus juncoides and Monochoria vaginalis were sown in the cup, rice seedlings at 2.5th leaf stage were transplanted. On the day when the seeds were sown, the wettable powder of the present invention prepared according to Formulation Example 1 was diluted with water so as to give a predetermined formulation amount, and the surface of the water was treated with the diluted wettable powder. The plants were grown by putting the cup in a green house at 25 to 30° C., and investigated on herbicidal effect against each weed 3 weeks after treatment with the herbicide according to the following criteria.
(§8) 5 Herbicidal rate 90% or more (almost complete death)
(§9) 4 Herbicidal rate 70% or more and less than 90%
(§10) 3 Herbicidal rate 40% or more and less than 70%
(§11) 2 Herbicidal rate 20% or more and less than 40%
(§12) 1 Herbicidal rate 5% or more and less than 20%
(§13) 0 Herbicidal rate 5% or less (little effect)

[32] = system: Monochoria vaginalis; experiment: as above; assay type: in vivo; details: 0.64 g/a, water surface treated on day of sowing, 3 weeks after treatment
Description: as §6, §7, §8, §9, §10, §11, §12, §13

[33] = system: Scirpus juncoides; experiment: as above; assay type: in vivo; details: 0.64 g/a, water surface treated on day of sowing, 3 weeks after treatment
Description: as §6, §7, §8, §9, §10, §11, §12, §13

[34] = system: direct sown rice; experiment: Herbicidal effect test by foliage treatment; assay type: in vivo, Oryza sativa; details: 1.6 g/a; foliage treatment after growth of 14 days; 3 weeks after treatment
Description: as §4, §5

[35] = system: direct sown rice; experiment: Herbicidal effect test by soil treatment; assay type: in vivo, Oryza sativa; details: 1.6 g/a, 3 weeks after treatment
Description: as §2, §3

Structure (SMILES): COc1cc(OC)nc(NC(=O)NS(=O)(=O)c2c(C3=NOCC(C)O3)c(C)nn2C)n1 (centres unmarked) [Compound 5, N-((4,6-dimethoxypyrimidin-2-yl)aminocarbonyl)-1,3-dimethyl-4-(5-methyl-5H,6H-1,4,2-dioxadin-3-yl)pyrazole-5-sulfonamide]
- herbicidal effect, A: Echinochloa crus-galli [1]: 5 (Herbicidal rate 90% or more (almost complete death))
- herbicidal effect, C: Monochoria vaginalis [2]: 5 (Herbicidal rate 90% or more (almost complete death))
- herbicidal effect, B: Scirpus juncoides [3]: 5 (Herbicidal rate 90% or more (almost complete death))
- herbicidal effect, K: Chenopodium album [4]: 5 (Herbicidal rate 90% or more (almost complete death))
- herbicidal effect, M: Stellaria media [5]: 5 (Herbicidal rate 90% or more (almost complete death))
- herbicidal effect, A: Echinochloa crus-galli [6]: 5 (Herbicidal rate 90% or more (almost complete death))
- herbicidal effect, L: Polygonum blumei [7]: 5 (Herbicidal rate 90% or more (almost complete death))
- herbicidal effect, c: soybean (Glycine max) [8]: 5 (Herbicidal rate 90% or more (almost complete death))
- herbicidal effect, D: Digitaria adscendes [9]: 5 (Herbicidal rate 90% or more (almost complete death))
- herbicidal effect, I: Ambrosia elatior [10]: 5 (Herbicidal rate 90% or more (almost complete death))
- herbicidal effect, f: Beta vulgaris (beet) [11]: 5 (Herbicidal rate 90% or more (almost complete death))
- herbicidal effect, b: corn (Zea mays) [12]: 5 (Herbicidal rate 90% or more (almost complete death))
- herbicidal effect, E: Setaria viridis [13]: 4 (Herbicidal rate 70% or more and less than 90%)
- herbicidal effect, H: Abutilon avicennae [14]: 4 (Herbicidal rate 70% or more and less than 90%)
- herbicidal effect, J: Amaranthus retroflexus [15]: 5 (Herbicidal rate 90% or more (almost complete death))
- herbicidal effect, F: Avena fatua [16]: 5 (Herbicidal rate 90% or more (almost complete death))
- herbicidal effect, K: Chenopodium album [17]: 5 (Herbicidal rate 90% or more (almost complete death))
- herbicidal effect, e: Triticum aestivum (wheat) [18]: 5 (Herbicidal rate 90% or more (almost complete death))
- herbicidal effect, M: Stellaria media [19]: 5 (Herbicidal rate 90% or more (almost complete death))
- herbicidal effect, A: Echinochloa crus-galli [20]: 5 (Herbicidal rate 90% or more (almost complete death))
- herbicidal effect, L: Polygonum blumei [21]: 5 (Herbicidal rate 90% or more (almost complete death))
- herbicidal effect, c: soybean (Glycine max) [22]: 5 (Herbicidal rate 90% or more (almost complete death))
- herbicidal effect, D: Digitaria adscendes [23]: 5 (Herbicidal rate 90% or more (almost complete death))
- herbicidal effect, I: Ambrosia elatior [24]: 5 (Herbicidal rate 90% or more (almost complete death))
- herbicidal effect, f: Beta vulgaris (beet) [25]: 5 (Herbicidal rate 90% or more (almost complete death))
- herbicidal effect, b: corn (Zea mays) [26]: 5 (Herbicidal rate 90% or more (almost complete death))
- herbicidal effect, E: Setaria viridis [27]: 4 (Herbicidal rate 70% or more and less than 90%)
- herbicidal effect, G: Black-grass [28]: 5 (Herbicidal rate 90% or more (almost complete death))
- herbicidal effect, H: Abutilon avicennae [29]: 5 (Herbicidal rate 90% or more (almost complete death))
- herbicidal effect, J: Amaranthus retroflexus [30]: 5 (Herbicidal rate 90% or more (almost complete death))
- herbicidal effect, A: Echinochloa crus-galli [31]: 5 (Herbicidal rate 90% or more (almost complete death))
- herbicidal effect, C: Monochoria vaginalis [32]: 5 (Herbicidal rate 90% or more (almost complete death))
- herbicidal effect, B: Scirpus juncoides [33]: 5 (Herbicidal rate 90% or more (almost complete death))
- herbicidal effect, d: direct sown rice [34]: 3 (Herbicidal rate 40% or more and less than 70%)
- herbicidal effect, d: direct sown rice [35]: 5 (Herbicidal rate 90% or more (almost complete death))

— patent US7709636B2, “Pyrazole sulfonylurea compound and herbicide” (Nissan Chemical Industries, Ltd., priority 2004, dated 2010)
